# Measurements from US20240052317A1, “Methods for Differentiating Stromal Cells or Pericytes” (Lung Biotechnology PBC, priority 2022, published 2024).
# Where a name gives a salt, the structure may show the parent alone.
# Tested on: human pulmonary artery endothelial cells (HPAEC)
# Assay: Tube formation assay of test differentiated cells co-cultured with HPAEC
# Format: cell-based
# Conditions: co-culture of HPAEC and test differentiated cells, 1 μM imatinib mesylate, FIG. 2
# Description: Next, test differentiated cells were further characterized with a tube formation assay using the following protocol. Test differentiated cells were co-cultured with human pulmonary artery endothelial cells (HPAEC) with or without 1 μM imatinib mesylate to inhibit angiogenesis, and tube formation was observed. Specifically, the wells of 96-well plates (Costar, Product No. 387) were coated with 30 μL of Matrigel® GFR. Plates were spun for 1 minute at 1,500 rotations per minute (RPM) and incubated for 30 minutes at 30° C. Cells were then lifted from culture plates, counted and resuspended in DMEM/F12 media such that 30 μL of media was available for each well. Each well received 30,000 HPAEC and 5,000 differentiated cells.
# Green labeling of HPAEC was performed using Nuclight Green Lentivirus, Essen/Sartorius #4475. 100 μL of transfection reagent was added to 5 mL of media and mixed. In another 5 mL of media, 10 μL of needed lentivirus was added and mixed. Both 5 mL preparations were then added together, mixed, and added to an approximately 70% confluent plate of HPAEC or pericytes. Plates were allowed grow overnight in incubator.
# Media and lentivirus preparation was removed and replaced with fresh media, and plates were incubated overnight. Plates were incubated for one week, using 1 μg of puromycin in the media for daily media changes […]
smiles,measurement,value
Cc1ccc(NC(=O)c2ccc(CN3CCN(C)CC3)cc2)cc1Nc1nccc(-c2cccnc2)n1 [imatinib mesylate],tube formation and co-localization with HPAEC,did not
